The values below are quoted from earlier work in patent publication US20170157095A1, “ALLISARTAN ISOPROXIL SOLID DISPERSION AND PHARMACEUTICAL COMPOSITION” (SHENZHEN SALUBRIS PHARMACEUTICALS CO., LTD, priority 2014, published 2017).

Take `CCCCc1nc(Cl)c(C(=O)OCOC(=O)OC(C)C)n1Cc1ccc(-c2ccccc2-c2nnn[nH]2)cc1` [Allisartan isoproxil, 2-butyl-4-chloro-1-[2′-(1H-tetrazol-5-yl)-1,1′-biphenyl-methyl]-imidazole-5-carboxylic acid, 1-[(isopropoxy)-carbonyloxy]-methyl ester]: the solubility in water entry is “low”.
